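These data come from cells grown in 96-well plates and exposed to compound for 48 hours at five concentrations. The concentration for 50% growth inhibition is given as GI50.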 Activity calls are given as the source filed them. No stated cut-off is given here; in the data, active = GI50 up to about 1.1 µM and inactive = higher.
Tests used:
Assay in all cases: NCI tumour cell line growth inhibition, 48 h
UO-31 = tested on: UO-31
NCI-H522 = tested on: NCI-H522
CAKI-1 = tested on: CAKI-1
SK-MEL-5 = tested on: SK-MEL-5
CCRF-CEM = tested on: CCRF-CEM
SF-268 = tested on: SF-268
NCI-H460 = tested on: NCI-H460
A549 = tested on: A549
A498 = tested on: A498
M14 = tested on: M14
MOLT-4 = tested on: MOLT-4
HL-60 = tested on: HL-60
UACC-62 = tested on: UACC-62
SR = tested on: SR
HOP-62 = tested on: HOP-62
HCT-116 = tested on: HCT-116
RPMI-8226 = tested on: RPMI-8226
Hs-578T = tested on: Hs-578T
PC-3 = tested on: PC-3
MDA-MB-231 = tested on: MDA-MB-231

Compound | GI50 (UO-31) | GI50 (NCI-H522) | GI50 (CAKI-1) | GI50 (SK-MEL-5) | GI50 (CCRF-CEM) | GI50 (SF-268) | GI50 (NCI-H460) | GI50 (A549) | GI50 (A498) | GI50 (M14) | GI50 (MOLT-4) | GI50 (HL-60) | GI50 (UACC-62) | GI50 (SR) | GI50 (HOP-62) | GI50 (HCT-116) | GI50 (RPMI-8226) | GI50 (Hs-578T) | GI50 (PC-3) | GI50 (MDA-MB-231)
C/C=C/C=C/[C@H]1Cc2cc(O)cc(O)c2O1 | 29.4 µM (inactive) | 36.6 µM (inactive) | 58.9 µM (inactive) | 49.7 µM (inactive) | 30.8 µM (inactive) | > 100 µM (inactive) | 44.1 µM (inactive) | 70 µM (inactive) | > 100 µM (inactive) | 37.3 µM (inactive) | 31.8 µM (inactive) | 26.1 µM (inactive) | 22.9 µM (inactive) | 78.5 µM (inactive) | > 100 µM (inactive) | 81.3 µM (inactive) |  |  |  | 
O=C1N=C(Nc2ccccc2Cl)SC1C(=O)Nc1ccc([N+](=O)[O-])cc1[N+](=O)[O-] (configuration not stated) | 72.4 µM (inactive) | > 100 µM (inactive) | > 100 µM (inactive) | > 100 µM (inactive) | > 100 µM (inactive) | > 100 µM (inactive) | > 100 µM (inactive) | > 100 µM (inactive) | > 100 µM (inactive) | > 100 µM (inactive) | > 100 µM (inactive) | > 100 µM (inactive) | > 100 µM (inactive) | > 100 µM (inactive) | > 100 µM (inactive) | > 100 µM (inactive) | > 100 µM (inactive) |  |  | 
[O-][S+]1c2ccccc2N=C(c2cccc3ccccc23)CC1c1cccc2ccccc12 (configuration not stated) | 23.9 µM (inactive) | 15 µM (inactive) | 24.8 µM (inactive) | 5.52 µM (inactive) | 20.5 µM (inactive) | 22.2 µM (inactive) | 15 µM (inactive) | 18.8 µM (inactive) | 21.7 µM (inactive) | 14.5 µM (inactive) | 20.3 µM (inactive) | 10.8 µM (inactive) | 12.6 µM (inactive) | 24.1 µM (inactive) | 34.2 µM (inactive) | 17.3 µM (inactive) | 19.8 µM (inactive) |  |  | 
O=C(/C=C/c1ccccc1)c1ccc(NCc2nc3ccccc3[nH]2)cc1 | 7.21 µM (inactive) | 4.14 µM (inactive) | 10.1 µM (inactive) | 2.45 µM (inactive) | 2.48 µM (inactive) | 6.44 µM (inactive) | 3.27 µM (inactive) | 4.35 µM (inactive) | 5.24 µM (inactive) | 9.02 µM (inactive) | 3.56 µM (inactive) | 2.33 µM (inactive) | 8.05 µM (inactive) | 16.1 µM (inactive) | 11.2 µM (inactive) | 3.22 µM (inactive) | 2.29 µM (inactive) |  |  | 
O=C1C/C(=C/c2ccc(/C=C3/CC(=O)N(c4cccc(Br)c4)C3=O)cc2)C(=O)N1c1cccc(Br)c1 | > 100 µM (inactive) | > 100 µM (inactive) | > 100 µM (inactive) | > 100 µM (inactive) | 66.1 µM (inactive) | > 100 µM (inactive) | > 100 µM (inactive) | > 100 µM (inactive) | > 71 µM (inactive) | > 100 µM (inactive) | 54.2 µM (inactive) | > 100 µM (inactive) | > 100 µM (inactive) | 97.3 µM (inactive) | > 100 µM (inactive) | > 100 µM (inactive) | > 100 µM (inactive) |  |  | 
CC(C)CC[C@H](O)[C@@H](C)[C@H]1[C@@H](OC2OC(C)C(O)C(O)C2O)C[C@H]2[C@@H]3CC=C4C[C@@H](O)CC[C@]4(C)[C@H]3[C@@H](O)C[C@]12C (some centres not stated) | 1.77 µM (inactive) | 3.69 µM (inactive) | 2.58 µM (inactive) | 3.35 µM (inactive) | 0.25 µM (active) | 1.58 µM (inactive) | 0.241 µM (active) |  | 3.46 µM (inactive) | 1.55 µM (inactive) | 0.0904 µM (active) | 0.098 µM (active) | 0.538 µM (active) | 0.143 µM (active) | 0.301 µM (active) | 0.258 µM (active) | 0.0631 µM (active) | 0.121 µM (active) |  | 
O=C(NCCn1ccnn1)Nc1ccccc1 |  | > 100 µM (inactive) | > 100 µM (inactive) | > 100 µM (inactive) | > 100 µM (inactive) | > 100 µM (inactive) | > 100 µM (inactive) | > 100 µM (inactive) |  | > 100 µM (inactive) | > 100 µM (inactive) | > 100 µM (inactive) |  | > 100 µM (inactive) | > 100 µM (inactive) |  | > 100 µM (inactive) |  | > 100 µM (inactive) | > 100 µM (inactive)
CCCC(Sc1ccccc1)P(=O)(c1ccccc1)c1ccccc1 (configuration not stated) | > 100 µM (inactive) | 31.5 µM (inactive) | 42.3 µM (inactive) | 25.4 µM (inactive) | 29.9 µM (inactive) | 32.5 µM (inactive) | 29.8 µM (inactive) | 28.8 µM (inactive) | 28.3 µM (inactive) | 35.2 µM (inactive) | 20.6 µM (inactive) | 22.3 µM (inactive) | 15.1 µM (inactive) | 20.6 µM (inactive) | 46.6 µM (inactive) | 31.3 µM (inactive) | 19 µM (inactive) |  |  | 
CCN(CC)CC(=O)/C=C/c1ccc(C)cc1 | 20.1 µM (inactive) |  | 17.8 µM (inactive) | 17.8 µM (inactive) | 2.93 µM (inactive) | 27.9 µM (inactive) | 20.6 µM (inactive) | 27 µM (inactive) | 56 µM (inactive) | 17.4 µM (inactive) | 31.9 µM (inactive) | 20.2 µM (inactive) | 17.3 µM (inactive) | 27.7 µM (inactive) | 34.1 µM (inactive) | 17.5 µM (inactive) | 34.6 µM (inactive) |  |  | 
C1CN2CCO[SiH](O1)OCC2 | > 100 µM (inactive) | > 100 µM (inactive) | > 100 µM (inactive) | > 100 µM (inactive) | > 100 µM (inactive) | > 100 µM (inactive) | > 100 µM (inactive) | > 100 µM (inactive) | > 100 µM (inactive) |  | > 100 µM (inactive) | > 100 µM (inactive) | > 100 µM (inactive) | > 100 µM (inactive) |  | > 100 µM (inactive) | > 100 µM (inactive) |  |  | 
COC(=O)[C@@]1(C)C(=O)CC[C@@H]1C=O | > 100 µM (inactive) | > 100 µM (inactive) | > 100 µM (inactive) | > 100 µM (inactive) | > 100 µM (inactive) | > 100 µM (inactive) | > 100 µM (inactive) | > 100 µM (inactive) | > 100 µM (inactive) | > 100 µM (inactive) | > 100 µM (inactive) | 60.5 µM (inactive) | > 100 µM (inactive) | 82.2 µM (inactive) | > 100 µM (inactive) | > 100 µM (inactive) | > 100 µM (inactive) |  |  | 
[O-][S+]1Cc2ccccc2CS1 (configuration not stated) | 21.4 µM (inactive) | 6.81 µM (inactive) | 13.9 µM (inactive) | 43.2 µM (inactive) |  | 22.9 µM (inactive) | 22.7 µM (inactive) | 93.8 µM (inactive) | 76.6 µM (inactive) | 15 µM (inactive) | 15.4 µM (inactive) | 15.1 µM (inactive) | 13.2 µM (inactive) | 20 µM (inactive) |  | 20.5 µM (inactive) | 13.9 µM (inactive) |  |  | 
CC(C)CS(=O)(=O)/C(=C(\c1ccc(Br)cc1)S(=O)(=O)CC(C)C)c1ccc(Br)cc1 | > 100 µM (inactive) | > 100 µM (inactive) | > 100 µM (inactive) | 1.41 µM (inactive) | > 100 µM (inactive) | > 100 µM (inactive) | > 100 µM (inactive) | > 100 µM (inactive) | 16.3 µM (inactive) | > 100 µM (inactive) | > 100 µM (inactive) |  | > 100 µM (inactive) | > 100 µM (inactive) | > 100 µM (inactive) | > 100 µM (inactive) | > 100 µM (inactive) |  |  | 
CCOC(=O)/C(I)=C/c1cc(OC)c(OC)c(OC)c1 | 5.79 µM (inactive) | 4.14 µM (inactive) | 4.27 µM (inactive) | 7.83 µM (inactive) | 1.93 µM (inactive) | 1.36 µM (inactive) | 40.6 µM (inactive) | 4.89 µM (inactive) | 25.6 µM (inactive) | 3.87 µM (inactive) | 7.01 µM (inactive) | 3.67 µM (inactive) | 4.5 µM (inactive) | 2.98 µM (inactive) | 26.9 µM (inactive) | 3.26 µM (inactive) | 4.02 µM (inactive) |  |  | 
Cc1ccc(C)c(NC(=O)CC/C(=N\NC(=O)C(=O)NN)C(C)C(=O)c2ccc(O)cc2)c1 (configuration not stated) | > 100 µM (inactive) | > 100 µM (inactive) | > 100 µM (inactive) | > 100 µM (inactive) | > 100 µM (inactive) | > 100 µM (inactive) | > 100 µM (inactive) | > 100 µM (inactive) | > 100 µM (inactive) | > 100 µM (inactive) | > 100 µM (inactive) |  | > 100 µM (inactive) | > 100 µM (inactive) | > 100 µM (inactive) | > 100 µM (inactive) | > 100 µM (inactive) |  |  | 
CC(=O)Nc1ccc(S(=O)(=O)Nc2cnc3ccccc3n2)cc1 | > 100 µM (inactive) | > 100 µM (inactive) | > 100 µM (inactive) | > 100 µM (inactive) | > 100 µM (inactive) | > 100 µM (inactive) | > 100 µM (inactive) | > 100 µM (inactive) | > 100 µM (inactive) | > 100 µM (inactive) | > 100 µM (inactive) | > 100 µM (inactive) | > 100 µM (inactive) | > 100 µM (inactive) | > 100 µM (inactive) |  | > 100 µM (inactive) |  |  | 
COc1ccc(/C=C2\CCC(CCN(C)C)(C3=CCCC3)C2=O)cc1Br (configuration not stated) | 5.35 µM (inactive) | 2.06 µM (inactive) | 8.81 µM (inactive) | 1.71 µM (inactive) | 2.13 µM (inactive) | 7.03 µM (inactive) | 10.1 µM (inactive) | 8.32 µM (inactive) | 8.95 µM (inactive) | 1.79 µM (inactive) | 2.7 µM (inactive) | 2.52 µM (inactive) |  | 1.51 µM (inactive) | 14.5 µM (inactive) | 3.46 µM (inactive) | 2.17 µM (inactive) |  |  | 
